From ChEMBL document CHEMBL6087408, “Discovery of peptidomimetic spiropyrrolidine derivatives as novel 3CLpro inhibitors against SARS-CoV -2” (Eur J Med Chem, 2025)

Key:
[1] = molecular target: Replicase polyprotein 1ab (Severe acute respiratory syndrome coronavirus 2, UniProt P0DTD1); experiment: Inhibition of 6His-tagged SARS-CoV-2 3CLpro using Dabcyl-KNSTLQSGLRKE-Edans as substrate preincubated for 60 mins followed by substrate addition by FRET assay
[2] = Cytotoxicity against human Huh-7 cells assessed as cell viability by Cell Titer Glo assay; type: toxicity, cell-based
[3] = Half life in ICR mouse at 20 mg/kg, po measured for 24 hrs by LC-MS/MS analysis; type: ADME, organism-based; details: in vivo
[4] = Metabolic stability in human liver microsomes assessed as half life at 1 uM preincubated for 5 mins followed by NADPH addition measured upto 45 mins by LC-MS/MS analysis; type: ADME, Microsome; details: time < 50 min
[5] = Metabolic stability in human liver microsomes assessed as hepatic clearance at 1 uM preincubated for 5 mins followed by NADPH addition measured upto 45 mins by LC-MS/MS analysis; type: ADME, Microsome; details: time < 50 min
[6] = AUC (0 to t) in ICR mouse at 10 mg/kg, iv measured for 24 hrs by LC-MS/MS analysis; type: ADME, organism-based; details: in vivo
[7] = AUC (0 to infinity) in ICR mouse at 10 mg/kg, iv measured for 24 hrs by LC-MS/MS analysis; type: ADME, organism-based; details: in vivo
[8] = Oral bioavailability in ICR mouse at 20 mg/kg measured for 24 hrs by LC-MS/MS analysis; type: ADME, organism-based; details: in vivo
[9] = Metabolic stability in mouse liver microsomes assessed as half life at 1 uM preincubated for 5 mins followed by NADPH addition measured upto 45 mins by LC-MS/MS analysis; type: ADME, Microsome; details: time < 50 min
[10] = Cmax in ICR mouse at 20 mg/kg, po measured for 24 hrs by LC-MS/MS analysis; type: ADME, organism-based; details: in vivo
[11] = Metabolic stability in mouse liver microsomes assessed as hepatic clearance at 1 uM preincubated for 5 mins followed by NADPH addition measured upto 45 mins by LC-MS/MS analysis; type: ADME, Microsome; details: time < 50 min
[12] = Half life in ICR mouse at 10 mg/kg, iv measured for 24 hrs by LC-MS/MS analysis; type: ADME, organism-based; details: in vivo
SARS-CoV-2 = experiment: Antiviral activity against SARS-CoV-2 infected in human Huh-7 cells transfected with viral replicon incubated for 1 day; type: functional, organism-based; details: Severe acute respiratory syndrome coronavirus 2, Huh-7, 24 h; for EC90: time 1 day
[13] = AUC (0 to t) in ICR mouse at 20 mg/kg, po measured for 24 hrs by LC-MS/MS analysis; type: ADME, organism-based; details: in vivo
[14] = AUC (0 to infinity) in ICR mouse at 20 mg/kg, po measured for 24 hrs by LC-MS/MS analysis; type: ADME, organism-based; details: in vivo
Procathepsin L = Procathepsin L (Homo sapiens, UniProt P07711); experiment: Inhibition of CTSL (unknown origin) incubated for 2 hrs
Cathepsin B = Cathepsin B (Homo sapiens, UniProt P07858); experiment: Inhibition of CTSB (unknown origin) incubated for 2 hrs

Sequence of Procathepsin L (P07711 whole entry): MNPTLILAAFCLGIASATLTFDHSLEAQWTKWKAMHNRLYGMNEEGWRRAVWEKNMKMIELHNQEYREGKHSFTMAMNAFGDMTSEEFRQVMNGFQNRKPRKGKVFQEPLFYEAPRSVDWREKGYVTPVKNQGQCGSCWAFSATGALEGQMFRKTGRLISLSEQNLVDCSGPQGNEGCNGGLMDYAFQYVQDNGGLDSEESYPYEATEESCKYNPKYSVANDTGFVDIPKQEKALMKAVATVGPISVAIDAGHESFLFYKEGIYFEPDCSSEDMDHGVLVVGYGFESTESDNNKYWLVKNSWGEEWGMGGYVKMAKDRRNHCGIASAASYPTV

## CN(C(=O)[C@@H](NC(=O)C(F)(F)F)C1CC1)[C@@H](CS(=O)(=O)Cc1ccccc1)C(=O)N1C[C@]2(C[C@H]1C#N)C(=O)Nc1ccccc12
[1]
  IC50: 94 nM

## CN(C(=O)[C@@H](NC(=O)OC(C)(C)C)C1CC1)[C@H](CSCc1ccccc1)C(=O)N1C[C@]2(C[C@H]1C#N)C(=O)Nc1ccccc12
[1]
  IC50: 674 nM

## N#C[C@@H]1C[C@@]2(CN1C(=O)[C@@H](CSCc1ccc(F)cc1)NC(=O)[C@@H](NC(=O)C(F)(F)F)C1CC1)C(=O)Nc1ccccc12
[1]
  IC50: 25 nM
[2]
  CC50: > 5000 nM
[3]
  half-life: 1.05 h
[4]
  half-life at 1 µM: 1.93 h
[5]
  CLhep predicted at 1 µM: 8.8 mL/min/kg
[6]
  AUC(0-t) at 24 h: 2120 ng·h/mL
[7]
  AUC(0-inf): 2130 ng·h/mL
[8]
  bioavailability: 22.9%
[9]
  half-life at 1 µM: 1.5 h
[10]
  Cmax: 1530 ng/mL
[11]
  CLhep predicted at 1 µM: 36.8 mL/min/kg
[12]
  half-life: 0.47 h
SARS-CoV-2
  EC50: 31 nM
  EC90: 286 nM
[13]
  AUC(0-t) at 24 h: 970 ng·h/mL
[14]
  AUC(0-inf): 972 ng·h/mL

## CC1(C)[C@@H]2[C@@H](C(=O)N3C[C@]4(C[C@H]3C#N)C(=O)Nc3ccccc34)N(C(=O)[C@@H](NC(=O)C(F)(F)F)C3CC3)C[C@@H]21
[1]
  IC50: 886 nM

## N#C[C@@H]1C[C@@]2(CN1C(=O)[C@H](CS(=O)(=O)Cc1ccccc1)NC(=O)[C@@H](NC(=O)C(F)(F)F)C1CC1)C(=O)Nc1ccccc12
[1]
  IC50: 1300 nM

## CC(C)(C)OC(=O)N[C@H](C(=O)N[C@@H](CSCc1ccccc1)C(=O)N1C[C@]2(C[C@H]1C#N)C(=O)Nc1ccccc12)C1CC1
[1]
  IC50: 47 nM

## CC(C)(C)[C@H](NC(=O)C(F)(F)F)C(=O)N1C[C@H]2[C@@H]([C@H]1C(=O)N[C@H](C#N)C[C@@H]1CCNC1=O)C2(C)C
[2]
  CC50: > 5000 nM
[4]
  half-life at 1 µM: 0.91 h
[5]
  CLhep predicted at 1 µM: 12.7 mL/min/kg
[9]
  half-life at 1 µM: 1.17 h
SARS-CoV-2
  EC90: 186 nM

## CC(C)(F)C(=O)N[C@H](C(=O)N[C@@H](COCc1ccccc1)C(=O)N1C[C@]2(C[C@H]1C#N)C(=O)Nc1ccccc12)C1CC1
[1]
  IC50: 80 nM

## CN(C(=O)[C@@H](NC(=O)C(F)(F)F)C1CC1)[C@@H](Cc1ccc(F)cc1)C(=O)N1C[C@]2(C[C@H]1C#N)C(=O)Nc1ccccc12
[1]
  IC50: 21 nM
[2]
  CC50: > 5000 nM
[3]
  half-life: 2.58 h
[4]
  half-life at 1 µM: 0.207 h
[5]
  CLhep predicted at 1 µM: 18.3 mL/min/kg
Procathepsin L
  IC50: 20200 nM
[6]
  AUC(0-t) at 24 h: 3420 ng·h/mL
[7]
  AUC(0-inf): 3420 ng·h/mL
[8]
  bioavailability: 16.2%
[9]
  half-life at 1 µM: 1.25 h
[10]
  Cmax: 1360 ng/mL
[11]
  CLhep predicted at 1 µM: 40.8 mL/min/kg
[12]
  half-life: 1.99 h
SARS-CoV-2
  EC50: 5 nM
  EC90: 39 nM
Cathepsin B
  IC50: 20700 nM
[13]
  AUC(0-t) at 24 h: 1110 ng·h/mL
[14]
  AUC(0-inf): 1110 ng·h/mL

## CC(C)C[C@H](NC(=O)[C@H]1C[C@@H]1C(=O)O)C(=O)NCCCCNC(=N)N
Procathepsin L
  IC50: 56.2 nM
Cathepsin B
  IC50: 41.4 nM

## N#C[C@@H]1C[C@@]2(CN1C(=O)[C@H](CSCc1ccccc1)NC(=O)[C@@H](NC(=O)C(F)(F)F)C1CC1)C(=O)Nc1ccccc12
[1]
  IC50: 298 nM

## CN(C(=O)[C@@H](NC(=O)C(F)(F)F)C1CC1)[C@@H](CSCc1ccccc1)C(=O)N1C[C@]2(C[C@H]1C#N)C(=O)Nc1ccccc12
[1]
  IC50: 40 nM
[9]
  half-life at 1 µM: 0.0617 h
[11]
  CLhep predicted at 1 µM: 84.9 mL/min/kg

## CN(C(=O)[C@@H](NC(=O)C(C)(C)F)C1CC1)[C@@H](COCc1ccccc1)C(=O)N1C[C@]2(C[C@H]1C#N)C(=O)Nc1ccccc12
[1]
  IC50: 53 nM
[9]
  half-life at 1 µM: 0.0783 h
[11]
  CLhep predicted at 1 µM: 83.6 mL/min/kg

## CC(C)(C)[C@H](NC(=O)C(F)(F)F)C(=O)N1C[C@H]2[C@@H]([C@H]1C(=O)N1C[C@]3(CC1C#N)C(=O)Nc1ccccc13)C2(C)C (stereo not given in full)
[1]
  IC50: 248 nM

## CN(C(=O)[C@@H](NC(=O)C(C)(C)F)C1CC1)[C@@H](CSCc1ccccc1)C(=O)N1C[C@]2(C[C@H]1C#N)C(=O)Nc1ccccc12
[1]
  IC50: 43 nM
[9]
  half-life at 1 µM: 0.06 h
[11]
  CLhep predicted at 1 µM: 85.1 mL/min/kg

## CC(C)(F)C(=O)N[C@H](C(=O)N[C@@H](CSCc1ccccc1)C(=O)N1C[C@]2(C[C@H]1C#N)C(=O)Nc1ccccc12)C1CC1
[1]
  IC50: 97 nM

## CN(C(=O)[C@@H](NC(=O)OC(C)(C)C)C1CC1)[C@@H](CSCc1ccccc1)C(=O)N1C[C@]2(C[C@H]1C#N)C(=O)Nc1ccccc12
[1]
  IC50: 38 nM
